Results: patent US20230265151A1, “GIP/GLP1 CO-AGONIST COMPOUNDS” (priority 2020, published 2023)
Read-outs that look alike come from different tables or passages of the source. *1 amine or outer side, *2 acyl side, *3 side chain or, on linkers, in order; H or OH if unused. Where a SMILES comes first, the peptide text is derived from it. Side-chain parts run from the residue outwards. [ ]: non-standard residue; d: D form. The star is where a group is joined. Decanoyl(10-(4-HOOC-PhO)) = O=C(O)c1ccc(OCCCCCCCCCC(=O)*)cc1; αMePhe(2-F) = C[C@](N)(Cc1ccccc1F)C(=O)O; γGlu = O=C(O)[C@H](CCC(=O)[*:2])N[*:1]; αMeY = C[C@](N)(Cc1ccc(O)cc1)C(=O)O; αMeL = CC(C)C[C@](C)(N)C(=O)O; Orn = NCCC[C@H](N)C(=O)O; AEEA = NCCOCCOCC(=O)O; Aib = CC(C)(N)C(=O)O

Assays:
Assay type in all cases: cell-based
hGIPR = biological target: T1, hGIPR (Homo sapiens, UniProt P48546); test: Functional cAMP formation (HTRF) in HEK-293 clonal cells expressing hGIPR, 0.1% bovine casein, without or with 1.0% human serum albumin; settings: for EC50: hGIPR EC50, nM (SEM, n), cAMP, 37° C., 0.1% bovine casein (no human serum albumin), geometric mean
T1 construct: expressed in transfected cells
T1 sequence (P48546 22-466): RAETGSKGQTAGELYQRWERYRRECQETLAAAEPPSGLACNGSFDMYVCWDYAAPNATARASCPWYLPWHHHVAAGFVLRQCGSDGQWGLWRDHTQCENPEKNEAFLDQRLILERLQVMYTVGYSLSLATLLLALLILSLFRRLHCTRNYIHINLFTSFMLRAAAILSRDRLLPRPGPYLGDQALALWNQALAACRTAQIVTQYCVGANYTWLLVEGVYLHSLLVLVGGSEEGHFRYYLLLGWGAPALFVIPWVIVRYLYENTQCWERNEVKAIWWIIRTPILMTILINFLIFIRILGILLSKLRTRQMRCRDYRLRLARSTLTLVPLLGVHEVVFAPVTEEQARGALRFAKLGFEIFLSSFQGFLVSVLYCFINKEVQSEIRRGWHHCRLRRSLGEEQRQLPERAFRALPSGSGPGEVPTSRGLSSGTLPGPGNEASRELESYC
Procedure, shortened: (§1)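 Readings of the HTRF 665/620 nm ratio, which falls as cAMP rises, were converted to nM cAMP using a standard curve after 30 min peptide exposure at 37° C.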

hGCGR = biological target: T2, hGCGR (Homo sapiens, UniProt P47871); test: Functional cAMP formation (HTRF) in HEK-293 clonal cells expressing hGCGR, 0.1% bovine casein, without or with 1.0% human serum albumin; settings: hGCGR EC50, nM (SEM, n), 37° C., geometric mean
T2 construct: expressed in transfected cells
T2 sequence (P47871 26-477): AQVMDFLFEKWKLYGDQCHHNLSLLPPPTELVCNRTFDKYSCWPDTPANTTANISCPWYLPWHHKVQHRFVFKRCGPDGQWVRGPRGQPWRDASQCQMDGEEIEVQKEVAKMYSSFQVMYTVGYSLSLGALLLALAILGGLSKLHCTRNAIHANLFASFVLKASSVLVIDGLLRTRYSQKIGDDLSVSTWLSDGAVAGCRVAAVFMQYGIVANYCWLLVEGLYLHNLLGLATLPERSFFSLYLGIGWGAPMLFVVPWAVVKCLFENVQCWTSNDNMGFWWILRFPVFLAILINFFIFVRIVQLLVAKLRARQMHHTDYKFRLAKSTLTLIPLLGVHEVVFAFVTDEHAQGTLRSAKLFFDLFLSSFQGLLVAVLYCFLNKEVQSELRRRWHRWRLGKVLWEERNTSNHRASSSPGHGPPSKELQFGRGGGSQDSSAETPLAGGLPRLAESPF
Procedure, shortened: as §1

hGLP-1R = hGLP-1R (Homo sapiens, UniProt P43220); test: Functional cAMP formation (HTRF) in HEK-293 clonal cells expressing hGLP-1R, 0.1% bovine casein, without or with 1.0% human serum albumin; parameters: expressed in transfected cells; settings: for Emax: percent of maximal response to GLP-1(7-36)NH2; for EC50: hGLP-1R EC50, nM (SEM, n), 37° C., geometric mean
hGLP-1R, sequence (P43220 24-463): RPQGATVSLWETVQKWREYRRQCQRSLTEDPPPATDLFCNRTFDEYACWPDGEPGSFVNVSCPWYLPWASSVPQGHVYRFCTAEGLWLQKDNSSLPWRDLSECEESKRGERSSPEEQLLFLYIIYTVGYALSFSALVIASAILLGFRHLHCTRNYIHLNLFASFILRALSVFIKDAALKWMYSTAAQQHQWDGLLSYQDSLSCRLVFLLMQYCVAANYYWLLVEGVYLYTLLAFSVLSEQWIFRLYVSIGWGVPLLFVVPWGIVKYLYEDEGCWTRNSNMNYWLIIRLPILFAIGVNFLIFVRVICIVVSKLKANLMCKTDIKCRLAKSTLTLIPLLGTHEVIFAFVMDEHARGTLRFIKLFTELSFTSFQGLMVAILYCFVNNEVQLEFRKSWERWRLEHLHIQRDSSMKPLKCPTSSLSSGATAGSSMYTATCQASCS
Procedure, shortened: as §1

[1] = 0.1% bovine casein and 1.0% human serum albumin
[2] = cAMP, 0.1% bovine casein (no human serum albumin)
[3] = HEK293, read-out: hGLP-1R Emax, % ± SEM, 0.1% bovine casein and 1.0% human serum albumin, 37° C.
[4] = HEK293, read-out: hGLP-1R Emax, % ± SEM, cAMP, 37° C., 0.1% bovine casein, arithmetic mean

| SMILES | Emax (hGIPR; HEK293, read-out: hGIPR Emax, % ± SEM, 0.1% bovine casein and 1.0% human serum albumin, 37° C., percent of maximal response to GIP(1-42)NH2) [%] | EC50 (hGIPR) [nM] | EC50 (hGCGR; [1]) [nM] | EC50 (hGCGR; [2]) [nM] | Emax (hGLP-1R; [3]) [%] | Emax (hGLP-1R; [4]) [%] | EC50 (hGLP-1R; [2]) [nM] | EC50 (hGLP-1R; [1]) [nM] |
| --- | --- | --- | --- | --- | --- | --- | --- | --- |
| CC[C@H](C)[C@H](NC(=O)[C@H](CCCN)NC(=O)[C@H](CC(=O)O)NC(=O)[C@H](CC(C)C)NC(=O)[C@](C)(CC(C)C)NC(=O)[C@@H](NC(=O)[C@H](CO)NC(=O)[C@H](Cc1ccncc1)NC(=O)[C@H](CC(=O)O)NC(=O)[C@H](CO)NC(=O)[C@@H](NC(=O)[C@](C)(Cc1ccccc1F)NC(=O)[C@@H](NC(=O)CNC(=O)[C@H](CCC(=O)O)NC(=O)C(C)(C)NC(=O)[C@@H](N)Cc1ccc(O)cc1)[C@@H](C)O)[C@@H](C)O)[C@@H](C)CC)C(=O)N[C@@H](C)C(=O)N[C@@H](CCC(N)=O)C(=O)NC(C)(C)C(=O)N[C@@H](CCC(=O)O)C(=O)N[C@@H](Cc1ccccc1)C(=O)N[C@H](C(=O)N[C@@H](CCCCNC(=O)COCCOCCNC(=O)COCCOCCNC(=O)CC[C@H](NC(=O)CCCCCCCCCOc1ccc(C(=O)O)cc1)C(=O)O)C(=O)N[C@@](C)(Cc1ccc(O)cc1)C(=O)N[C@@H](CC(C)C)C(=O)N[C@H](C(=O)N[C@@H](CCCCNC(=O)COCCOCCNC(=O)COCCOCCNC(=O)CC[C@H](NC(=O)CCCCCCCCCOc1ccc(C(=O)O)cc1)C(=O)O)C(=O)NCC(=O)NCC(=O)N1CCC[C@H]1C(=O)N[C@@H](CO)C(=O)N[C@@H](CO)C(=O)NCC(=O)N[C@@H](C)C(=O)N1CCC[C@H]1C(=O)N1CCC[C@H]1C(=O)N1CCC[C@H]1C(=O)N[C@@H](CO)C(N)=O)[C@@H](C)CC)[C@@H](C)CC [Example 274] | 93.5 | 0.0226 | > 9950 | > 9950 | 121 | 114 | 0.406 |  |
| CC[C@H](C)[C@H](NC(=O)[C@H](CCCN)NC(=O)[C@H](CC(=O)O)NC(=O)[C@H](CC(C)C)NC(=O)[C@](C)(CC(C)C)NC(=O)[C@@H](NC(=O)[C@H](CO)NC(=O)[C@H](Cc1ccncc1)NC(=O)[C@H](CC(=O)O)NC(=O)[C@H](CO)NC(=O)[C@@H](NC(=O)[C@](C)(Cc1ccccc1F)NC(=O)[C@@H](NC(=O)CNC(=O)[C@H](CCC(=O)O)NC(=O)C(C)(C)NC(=O)[C@@H](N)Cc1ccc(O)cc1)[C@@H](C)O)[C@@H](C)O)[C@@H](C)CC)C(=O)N[C@@H](C)C(=O)N[C@@H](CCC(N)=O)C(=O)NC(C)(C)C(=O)N[C@@H](CCCCNC(=O)COCCOCCNC(=O)COCCOCCNC(=O)CC[C@H](NC(=O)CCCCCCCCCOc1ccc(C(=O)O)cc1)C(=O)O)C(=O)N[C@@H](Cc1ccccc1)C(=O)N[C@H](C(=O)N[C@H](CCC(=O)O)C(=O)N[C@@](C)(Cc1ccc(O)cc1)C(=O)N[C@@H](CC(C)C)C(=O)N[C@H](C(=O)N[C@@H](CCCCNC(=O)COCCOCCNC(=O)COCCOCCNC(=O)CC[C@H](NC(=O)CCCCCCCCCOc1ccc(C(=O)O)cc1)C(=O)O)C(=O)NCC(=O)NCC(=O)N1CCC[C@H]1C(=O)N[C@@H](CO)C(=O)N[C@@H](CO)C(=O)NCC(=O)N[C@@H](C)C(=O)N1CCC[C@H]1C(=O)N1CCC[C@H]1C(=O)N1CCC[C@H]1C(=O)N[C@@H](CO)C(N)=O)[C@@H](C)CC)[C@@H](C)CC [Example 275] |  | 0.0152 | > 9950 | > 9950 |  | 110 |  | 33.5 |
| CC[C@H](C)[C@H](NC(=O)[C@H](CC(C)C)NC(=O)[C@](C)(Cc1ccc(O)cc1)NC(=O)[C@@H](CCC(=O)O)NC(=O)[C@@H](NC(=O)[C@H](Cc1ccccc1)NC(=O)[C@H](CCCCNC(=O)COCCOCCNC(=O)COCCOCCNC(=O)CC[C@H](NC(=O)CCCCCCCCCOc1ccc(C(=O)O)cc1)C(=O)O)NC(=O)C(C)(C)NC(=O)[C@H](CCC(N)=O)NC(=O)[C@H](C)NC(=O)[C@H](CCCCNC(=O)COCCOCCNC(=O)COCCOCCNC(=O)CC[C@H](NC(=O)CCCCCCCCCOc1ccc(C(=O)O)cc1)C(=O)O)NC(=O)[C@H](CCCN)NC(=O)[C@H](CC(=O)O)NC(=O)[C@H](CC(C)C)NC(=O)[C@](C)(CC(C)C)NC(=O)[C@@H](NC(=O)[C@H](CO)NC(=O)[C@H](Cc1ccc(OC)cc1)NC(=O)[C@H](CC(=O)O)NC(=O)[C@H](CO)NC(=O)[C@@H](NC(=O)[C@](C)(Cc1ccccc1F)NC(=O)[C@@H](NC(=O)CNC(=O)[C@H](CCC(=O)O)NC(=O)C(C)(C)NC(=O)[C@@H](N)Cc1ccc(O)cc1)[C@@H](C)O)[C@@H](C)O)[C@@H](C)CC)[C@@H](C)CC)C(=O)N[C@@H](CCC(=O)O)C(=O)NCC(=O)NCC(=O)N1CCC[C@H]1C(=O)N[C@@H](CO)C(=O)N[C@@H](CO)C(=O)NCC(=O)N[C@@H](C)C(=O)N1CCC[C@H]1C(=O)N1CCC[C@H]1C(=O)N1CCC[C@H]1C(=O)N[C@@H](CO)C(N)=O [Example 277] (H-Y[Aib]EGT[αMePhe(2-F)]TSDY(Me)SI[αMeL]LD[Orn]K([AEEA-AEEA-γGlu-Decanoyl(10-(4-HOOC-PhO))])AQ[Aib]K([AEEA-AEEA-γGlu-Decanoyl(10-(4-HOOC-PhO))])FI[dE][αMeY]LIEGGPSSGAPPPS-NH2) |  | 0.0176 | > 9950 | > 9950 | 93.1 | 97.1 | 0.225 |  |
